In ChEMBL document CHEMBL1201862, “PubChem BioAssay data set” (2004):
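Exposure lasted 48 hours, with cells grown in 96-well plates and compounds tested at five concentrations. Here, GI50 denotes the concentration required for 50% inhibition of growth.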 Active and inactive are the calls of the source. No stated cut-off is given here; in the data, active = GI50 up to about 1.1 µM and inactive = higher.

What was measured:
Assay in all cases: growth of human tumour cells (NCI), 48 h
OVCAR-4 = system: OVCAR-4
SF-539 = system: SF-539
UACC-257 = system: UACC-257
U-251 = system: U-251
K562 = system: K562
OVCAR-5 = system: OVCAR-5
COLO 205 = system: COLO 205
SNB-75 = system: SNB-75
786-0 = system: 786-0
KM12 = system: KM12
SK-MEL-2 = system: SK-MEL-2
SK-MEL-5 = system: SK-MEL-5
HCT-116 = system: HCT-116
SW-620 = system: SW-620
OVCAR-3 = system: OVCAR-3
NCI-H522 = system: NCI-H522
SNB-19 = system: SNB-19
SF-295 = system: SF-295
LOX IMVI = system: LOX IMVI

Measured: GI50

NC(=O)n1ncc(Cl)c(Cl)c1=O
inactive: OVCAR-4 > 100 µM | SF-539 > 100 µM | UACC-257 > 100 µM | U-251 > 100 µM | K562 > 100 µM | OVCAR-5 > 100 µM | COLO 205 > 100 µM | SNB-75 > 100 µM | 786-0 > 100 µM | KM12 > 100 µM | SK-MEL-2 > 100 µM | SK-MEL-5 > 100 µM | HCT-116 > 100 µM | SW-620 > 100 µM | OVCAR-3 > 100 µM | NCI-H522 > 100 µM | SNB-19 > 100 µM | SF-295 > 100 µM

CCN1CCC(C)OP1(=O)Cc1ccccc1 (stereo not drawn)
inactive: OVCAR-4 > 100 µM | SF-539 > 100 µM | UACC-257 > 100 µM | U-251 > 100 µM | K562 > 100 µM | OVCAR-5 > 100 µM | COLO 205 > 100 µM | 786-0 > 100 µM | KM12 > 100 µM | LOX IMVI > 100 µM | SK-MEL-2 > 100 µM | SK-MEL-5 > 100 µM | HCT-116 > 100 µM | SW-620 > 100 µM | OVCAR-3 46.5 µM | SNB-19 > 100 µM | SF-295 > 100 µM

S=c1[nH]c2ccc(Br)cc2c(=S)n1-c1ccccc1
inactive: OVCAR-4 28.7 µM | SF-539 14.8 µM | UACC-257 16.4 µM | U-251 6.58 µM | K562 29.2 µM | OVCAR-5 32.5 µM | COLO 205 22.2 µM | SNB-75 34.2 µM | 786-0 24.5 µM | KM12 16.9 µM | LOX IMVI 19.2 µM | SK-MEL-2 16.4 µM | SK-MEL-5 16.4 µM | HCT-116 8.75 µM | SW-620 32.7 µM | OVCAR-3 20.7 µM | SNB-19 5.85 µM | SF-295 16.9 µM

CCSc1c2ccccc2c(-c2nc(F)nc(F)n2)n1CCc1ccccc1
inactive: OVCAR-4 > 100 µM | SF-539 > 100 µM | U-251 > 100 µM | K562 > 100 µM | OVCAR-5 > 100 µM | COLO 205 > 100 µM | 786-0 > 100 µM | KM12 > 100 µM | LOX IMVI > 100 µM | SK-MEL-2 > 100 µM | HCT-116 > 100 µM | SW-620 > 100 µM | OVCAR-3 > 100 µM | NCI-H522 > 100 µM | SNB-19 > 100 µM | SF-295 > 100 µM

Cc1cc(O)nc(CNC(=O)c2cccc3ccccc23)n1
inactive: OVCAR-4 > 100 µM | SF-539 > 100 µM | UACC-257 > 100 µM | U-251 > 100 µM | K562 > 100 µM | COLO 205 > 100 µM | SNB-75 > 100 µM | 786-0 > 100 µM | LOX IMVI > 100 µM | SK-MEL-5 > 100 µM | HCT-116 > 100 µM | SW-620 > 100 µM | OVCAR-3 > 100 µM | NCI-H522 > 100 µM | SNB-19 > 100 µM | SF-295 > 100 µM

COC1C2C[C@@H](O)CCC2C(C(=O)OCCl)C[C@H]1O (stereo partly drawn)
inactive: OVCAR-4 > 100 µM | SF-539 > 100 µM | UACC-257 > 100 µM | U-251 > 100 µM | K562 > 100 µM | COLO 205 > 100 µM | SNB-75 > 100 µM | 786-0 > 100 µM | KM12 > 100 µM | SK-MEL-2 > 100 µM | SK-MEL-5 > 100 µM | HCT-116 > 100 µM | SW-620 > 100 µM | OVCAR-3 > 100 µM | NCI-H522 > 100 µM | SNB-19 > 100 µM

N#Cc1cccc(N2C(=O)c3c(c(-c4ccccc4)c(-c4ccc(Sc5ccc(-c6c(-c7ccccc7)c7c(c(-c8ccccc8)c6-c6ccccc6)C(=O)N(c6cccc(C#N)c6)C7=O)cc5)cc4)c(-c4ccccc4)c3-c3ccccc3)C2=O)c1
inactive: OVCAR-4 > 100 µM | SF-539 65.2 µM | UACC-257 > 100 µM | U-251 21.2 µM | K562 > 100 µM | OVCAR-5 > 100 µM | COLO 205 > 100 µM | 786-0 > 100 µM | KM12 > 100 µM | LOX IMVI 78.2 µM | SK-MEL-2 > 100 µM | SK-MEL-5 77.6 µM | HCT-116 65.2 µM | SW-620 > 100 µM | OVCAR-3 > 100 µM | NCI-H522 > 100 µM | SNB-19 29.3 µM | SF-295 > 100 µM

COCC12CC(CC1=O)C1C2ON2c3ccccc3C(=O)C12c1ccccc1 (stereo not drawn)
inactive: OVCAR-4 4.9 µM | SF-539 > 100 µM | UACC-257 52 µM | U-251 > 100 µM | K562 63.7 µM | COLO 205 > 100 µM | SNB-75 > 100 µM | 786-0 > 100 µM | SK-MEL-5 > 100 µM | HCT-116 > 100 µM | SW-620 > 100 µM | NCI-H522 > 100 µM | SNB-19 > 100 µM | SF-295 > 100 µM

CCOC(=O)N1CCC(=O)C[C@@H]1C/C=C/P1(=O)O[C@H](c2ccccc2)C(C)N1C(C)C (stereo partly drawn)
inactive: OVCAR-4 > 100 µM | SF-539 > 100 µM | UACC-257 > 100 µM | U-251 > 100 µM | K562 > 100 µM | OVCAR-5 > 100 µM | SNB-75 > 100 µM | 786-0 > 100 µM | KM12 > 100 µM | SK-MEL-2 > 100 µM | SK-MEL-5 > 100 µM | HCT-116 > 100 µM | SW-620 > 100 µM | OVCAR-3 > 100 µM | NCI-H522 > 100 µM | SNB-19 > 100 µM | SF-295 > 100 µM

CS/C(C)=N/OC(=O)NCCCCNc1ccc(N=[N+]=[N-])cc1
inactive: OVCAR-4 42.9 µM | SF-539 50.5 µM | UACC-257 30.9 µM | U-251 30.6 µM | K562 30.8 µM | OVCAR-5 > 100 µM | COLO 205 36.1 µM | SNB-75 52.4 µM | 786-0 76.7 µM | KM12 29.5 µM | LOX IMVI 26.7 µM | SK-MEL-5 16.7 µM | HCT-116 34.2 µM | SW-620 58.5 µM | OVCAR-3 27.7 µM | NCI-H522 4.76 µM | SNB-19 66.4 µM | SF-295 28.5 µM

COC1CCN(N(C)C)O1 (stereo not drawn)
inactive: OVCAR-4 > 100 µM | UACC-257 > 100 µM | U-251 > 100 µM | K562 > 100 µM | OVCAR-5 > 100 µM | COLO 205 > 100 µM | SNB-75 > 100 µM | 786-0 > 100 µM | KM12 > 100 µM | LOX IMVI > 100 µM | SK-MEL-2 > 100 µM | SK-MEL-5 > 100 µM | HCT-116 > 100 µM | SW-620 > 100 µM | OVCAR-3 > 100 µM | NCI-H522 > 100 µM | SNB-19 > 100 µM | SF-295 > 100 µM

c1csc(C[N+]23CN4CN(CN(C4)C2)C3)c1
inactive: OVCAR-4 24.3 µM | SF-539 > 100 µM | UACC-257 > 100 µM | U-251 22.3 µM | K562 20 µM | OVCAR-5 26.9 µM | COLO 205 20 µM | SNB-75 > 100 µM | 786-0 22.6 µM | KM12 > 100 µM | SK-MEL-2 19.7 µM | SK-MEL-5 19.3 µM | HCT-116 > 100 µM | SW-620 15.7 µM | OVCAR-3 > 100 µM | NCI-H522 > 100 µM | SNB-19 > 100 µM | SF-295 > 100 µM

CSc1ccc(NC(=O)C2c3[nH]c4ccccc4c3C3CCC(C(C)(C)C)CC3C2C(=O)O)cc1 (stereo not drawn)
inactive: OVCAR-4 18.4 µM | SF-539 19.7 µM | UACC-257 34.1 µM | U-251 15 µM | K562 32.3 µM | COLO 205 18 µM | SNB-75 17.2 µM | 786-0 17.5 µM | SK-MEL-5 21.1 µM | HCT-116 14.4 µM | SW-620 17.7 µM | NCI-H522 15 µM | SNB-19 30.5 µM | SF-295 17.6 µM

NC1=NC(Cn2nc(-c3ccccc3)c3ccccc3c2=O)=NNC(=O)N1
inactive: OVCAR-4 > 100 µM | SF-539 > 100 µM | UACC-257 > 100 µM | U-251 > 100 µM | K562 > 100 µM | OVCAR-5 > 100 µM | COLO 205 > 100 µM | SNB-75 > 100 µM | 786-0 > 100 µM | KM12 > 100 µM | SK-MEL-2 > 100 µM | SK-MEL-5 > 100 µM | HCT-116 > 100 µM | SW-620 > 100 µM | OVCAR-3 > 100 µM | NCI-H522 > 100 µM | SNB-19 > 100 µM | SF-295 > 100 µM

COCCNC(=O)C1C(=O)N(CCOC)C(=O)/C1=N/N (stereo not drawn)
inactive: SF-539 > 100 µM | UACC-257 > 100 µM | U-251 > 100 µM | K562 > 100 µM | SNB-75 > 100 µM | 786-0 > 100 µM | KM12 > 100 µM | LOX IMVI > 100 µM | SK-MEL-2 > 100 µM | HCT-116 > 100 µM | SW-620 > 100 µM | OVCAR-3 > 100 µM | NCI-H522 > 100 µM | SNB-19 > 100 µM | SF-295 > 100 µM

CNC(=O)N1CN(c2ccccc2)C2(CCN(CCCC(=O)c3ccc(F)cc3)CC2)C1=O
inactive: SF-539 13.9 µM | UACC-257 7.64 µM | U-251 21.5 µM | K562 19.5 µM | OVCAR-5 11.7 µM | COLO 205 4.56 µM | SNB-75 29.3 µM | 786-0 26.1 µM | KM12 20.9 µM | LOX IMVI 17.1 µM | SK-MEL-5 11.8 µM | HCT-116 7.59 µM | SW-620 27.3 µM | OVCAR-3 18.4 µM | NCI-H522 24.9 µM | SNB-19 17.3 µM | SF-295 16.8 µM
